Test systems include 786-0 renal; M14 melanoma; HCT-116 colon; IGROV1 ovarian; NCI-H522 lung; EKVX NSCLC; SN12C renal; MCF7 breast; HOP-92 NSCLC; SK-OV-3 ovarian.
What all share (assay): NCI anticancer screen, dose series, 48 h

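Interpolation was linear, between the two tested concentrations surrounding the appropriate level; five concentrations were tested over 48 hours in 96-well plates. GI50 is the concentration that inhibits growth by half. At the TGI there is no net growth.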

Regarding `CCOC(=O)COc1ccc2c(C)cc(=O)oc2c1`, the TGI with 786-0 renal, with M14 melanoma, in the test on HCT-116 colon, in the test on IGROV1 ovarian, in the test with NCI-H522 lung and with EKVX NSCLC was more than 100 µM throughout. Besides, the TGI in the test with SN12C renal, in the test on MCF7 breast and in the test with HOP-92 NSCLC was more than 100 µM in each case.

Regarding `NC(=S)c1c(N)n(C2OC(CO)C(O)C2O)c2ncnc(N)c12` (centres undefined), the GI50 with 786-0 renal was 304 nM; with M14 melanoma, 178 nM; with HCT-116 colon, 211 nM; with NCI-H522 lung, 188 nM; in the test on EKVX NSCLC it was 345 nM; with SN12C renal it was 0.208 µM. Besides, the GI50 is 388 nM with SK-OV-3 ovarian, 57.9 nM with MCF7 breast and 302 nM in the test with HOP-92 NSCLC. For the same compound, the TGI in the test on M14 melanoma was 0.648 µM; in the test on NCI-H522 lung, 0.479 µM; in the test on EKVX NSCLC, 11 µM; in the test with SN12C renal, more than 100 µM; with SK-OV-3 ovarian, more than 100 µM; with HOP-92 NSCLC, 3.43 µM.

As for `Cc1ccc(S(=O)(=O)NC(CN)C(=O)O)cc1` (centres undefined), the TGI in the test with 786-0 renal, in the test with M14 melanoma, with HCT-116 colon, with IGROV1 ovarian, with NCI-H522 lung and in the test on EKVX NSCLC was more than 100 µM each time. The TGI in the test on SK-OV-3 ovarian, with MCF7 breast and in the test on HOP-92 NSCLC was more than 100 µM each time.

Turning to `COc1ccc(/C(C#N)=C2C=C/C(=N/O)c3ccccc3\2)cc1`, the GI50 in the test on 786-0 renal was 457 nM; with M14 melanoma, 228 nM; in the test on HCT-116 colon it was 328 nM; in the test on IGROV1 ovarian, 0.523 µM; in the test with NCI-H522 lung, 89.1 nM; in the test with SN12C renal, 0.418 µM. Besides, the figures for the GI50 with SK-OV-3 ovarian, in the test with MCF7 breast and in the test with HOP-92 NSCLC were 301 nM, 181 nM and 390 nM, respectively. The TGI in the test with 786-0 renal was 15 µM; in the test with M14 melanoma, 2.01 µM; with HCT-116 colon it was 11 µM; with IGROV1 ovarian it was 17.6 µM; with NCI-H522 lung it was 0.838 µM; with SN12C renal, 13.5 µM. The TGI was found to be 3.4 µM with SK-OV-3 ovarian, 14.1 µM in the test with MCF7 breast and 6.96 µM with HOP-92 NSCLC.

In the case of `CN(CCCNC(=O)CCOCCOCCOCCNC(=O)Cc1ccc2ccc3cccc4ccc1c2c34)CCCNc1cc(-c2ccc3ccccc3c2)nc2ccccc12`, the GI50 with 786-0 renal is 615 nM; in the test on M14 melanoma, 591 nM; with HCT-116 colon it was 130 nM; in the test with EKVX NSCLC, 480 nM; in the test on SN12C renal it was 3.59 µM; in the test with SK-OV-3 ovarian it was 634 nM. Also, the GI50 in the test with MCF7 breast is 283 nM; in the test with HOP-92 NSCLC it was 380 nM. Also, the TGI with 786-0 renal amounted to 1.11 µM; in the test on M14 melanoma it was 1.14 µM; in the test on HCT-116 colon it was 32.5 µM; with EKVX NSCLC, 0.959 µM; in the test on SN12C renal, 8.44 µM; in the test on SK-OV-3 ovarian it was 1.2 µM. In addition, the TGI was 0.771 µM with MCF7 breast and 2.22 µM in the test on HOP-92 NSCLC.

As to `COc1cc2nc3cc([N+](=O)[O-])ccc3c(NCCNCC(C)(C)O)c2cc1OC`, the GI50 is 1510 nM in the test with 786-0 renal; 1290 nM in the test on M14 melanoma; 368 nM in the test on HCT-116 colon; 0.457 µM with IGROV1 ovarian; 256 nM in the test on NCI-H522 lung; 1720 nM with EKVX NSCLC. The GI50 with SK-OV-3 ovarian was 2010 nM; with MCF7 breast it was 372 nM; in the test on HOP-92 NSCLC, 503 nM. The TGI in the test on 786-0 renal came to 4.04 µM; in the test on M14 melanoma, 3.05 µM; with HCT-116 colon, 1.54 µM; in the test with IGROV1 ovarian, 2.16 µM; in the test on NCI-H522 lung it was 1.04 µM; in the test with EKVX NSCLC, 5.7 µM. In addition, the TGI in the test with SK-OV-3 ovarian was 6.51 µM; in the test on MCF7 breast it was 2.04 µM; with HOP-92 NSCLC, 2.43 µM.

Regarding `c1cc2c(cn1)Nc1ccncc1S2`, the GI50 in the test on 786-0 renal is 23700 nM; in the test with M14 melanoma it was 32600 nM; in the test with HCT-116 colon it was 17900 nM; in the test on NCI-H522 lung, 40400 nM; in the test with EKVX NSCLC it was 55800 nM; in the test with SN12C renal, 69.4 µM. The GI50 in the test with SK-OV-3 ovarian is 15200 nM; in the test with MCF7 breast, 32900 nM; in the test with HOP-92 NSCLC, 8520 nM. Moreover, the TGI with 786-0 renal was 78.1 µM; in the test on M14 melanoma it was more than 100 µM; in the test on HCT-116 colon, 69.5 µM; in the test with NCI-H522 lung, more than 100 µM; with EKVX NSCLC, more than 100 µM; in the test with SN12C renal, more than 100 µM. The TGI in the test with SK-OV-3 ovarian was 80.6 µM; in the test with MCF7 breast, more than 100 µM; in the test on HOP-92 NSCLC, 76.6 µM.

Turning to `CCOC(=O)c1cnc2c(C)cccc2c1Nc1ccc(C(C)=O)cc1`, the GI50 in the test on 786-0 renal is 16900 nM; in the test with M14 melanoma, 77800 nM; with HCT-116 colon, 14200 nM; in the test on IGROV1 ovarian, 25.5 µM; in the test on NCI-H522 lung, 14900 nM; in the test on SN12C renal, 24.9 µM. Moreover, the GI50 with SK-OV-3 ovarian was 75800 nM; in the test with MCF7 breast it was 28000 nM; in the test with HOP-92 NSCLC it was 8950 nM. Besides, the TGI was 42.3 µM in the test on 786-0 renal; more than 100 µM in the test with M14 melanoma; more than 100 µM in the test with HCT-116 colon; more than 100 µM in the test with IGROV1 ovarian; more than 100 µM in the test with NCI-H522 lung; more than 100 µM in the test with SN12C renal. Also, the TGI in the test on SK-OV-3 ovarian was more than 100 µM; in the test with MCF7 breast it was more than 100 µM; in the test on HOP-92 NSCLC, 36.9 µM.

In the case of `O=C1NC(=NCCCc2ccccc2)S/C1=C\c1ccc2ncccc2c1`, the GI50 with 786-0 renal was 5470 nM; with M14 melanoma, 9630 nM; in the test with HCT-116 colon, 3600 nM; in the test with IGROV1 ovarian it was 5.49 µM; in the test on NCI-H522 lung it was 4470 nM; with SN12C renal, 6.13 µM. The GI50 is 5330 nM in the test on SK-OV-3 ovarian, 4110 nM in the test on MCF7 breast and 4220 nM in the test on HOP-92 NSCLC. The TGI with 786-0 renal is 13 µM; in the test with M14 melanoma it was more than 25 µM; in the test with HCT-116 colon, 14.1 µM; in the test with IGROV1 ovarian, 14.1 µM; with NCI-H522 lung, 9.17 µM; in the test on SN12C renal it was 20.9 µM. Further, the TGI in the test with SK-OV-3 ovarian is 12.2 µM; with MCF7 breast it was 11.2 µM; in the test on HOP-92 NSCLC, 13.4 µM.

Values taken from PubChem BioAssay (NCI).
